These results are taken from patent US4177287A, “Pharmaceutical compositions of N1 -acyl-N2 -phenyldiaminopropanols and process for their preparation” (Kali-Chemie Pharma GmbH, priority 1977, dated 1979).

Counter-ions that a name gives are not always drawn. Bounds are passed on as bounds.

Series [1] concerns ulcer. The following applies: background; cited from earlier work.
Series [2] concerns secretion in the stomach. The series is described as follows: Effect on the secretion in the stomach of narcotized rats (determination of the pH-value). The following applies: for inhibition at 300 mg/kg: dosage 300 mg/kg p.o., narcotized rat, acetylcholine 10 mg/kg i.p. control = 100. The format is in vivo, rat. As to the method: 3. Effect on the secretion in the stomach of narcotized rats (determinationof the pH-value)
The test is performed on narcotized (urethane narcosis) male rats, having a body weight of from 200-230 g. For this purpose N/4000-sodium hydroxide solution is perfused into the stomachs of rats at a rate of 1 ml per minute by means of a cardia- and pylorus-catheter. The pH value of the perfusate, which leaves the stomach by way of the pylorus catheter, is determined by means of a one-rod measuring system, and is continuously registered.
In order to perform a comparative control test, after a pre-run period of 20 minutes, 10 mg per kg of acetylcholine are applied intraperitoneously. The resulting comparative control value is defined as being 100.
For evaluation, the surface-integral is calculated numerically with the aid of the rule of Simpson. The degree of inhibition of the secretion is calculated from the difference between the surfaces before and after the application of the test compound.

Series [3] concerns indomethacine-induced ulcers. Briefly: Effectiveness against indomethacine-induced ulcers in the rat. It is filed as in vivo. The following applies: for inhibition at 68 mg/kg: dosage 68 mg/kg p.o. The procedure:
To at least 6 male rats, having a body-weight of from 170 to 220 g, dosages of the test compounds are administered orally in an amount of 0.5 ml of a suspension medium per 100 g animal body-weight. The animals of the blank control group received the corresponding amount by volume of the suspension medium only. One hour after application of the test compounds, a dosage of 20 mg per kg of indomethacine contained in an amount of 0.5 ml of a suspension per 100 g animal body-weight, are orally applied to each animal for producing ulcers. 24 hours after the application of indomethacine, the animals are sacrificed.
The mean value and the standard deviation of the numbers of ulcers is calculated and subsequently the inhibiting activity of the test compounds and a standard compound are calculated as percent inhibition compared with the blank control group.

Series [4] in a line: in vivo. To be noted: mouse, po, single application, 7-day, unfed white NMRI-mice, read-out: Toxicity LD50 p.o. The procedure: The acute 7-day-toxicity is determined after a single application per os in white NMRI-mice which had not been fed. The calculation of the LD50 is carried out by probitanalysis by means of electronic data processing (see L. Cavalli-Sforza, Gustav Fischer-Verlag, Stuttgart (1964), Grundbegriffe der Biometrie, pp. 153).

Where [5] appears, read: po, rat, indomethacine 20 mg/kg p.o., 24 hours.

The term inhibition denotes the percentage by which the read-out fell short of the control. `CN1[C@@H]2CC[C@H]1C[C@@H](OC(=O)C(CO)c1ccccc1)C2` (stereo partly drawn) [A, atropine sulfate, reference compound]: in series [1], the “side effects in ulcer therapy (in words)” value is reported as “side effects which occur already at low dosages” and the “success in ulcer therapy (in words)” value was “have not succeeded in ulcer therapy”. Besides, the inhibition at 0.5 mg/kg in series [2] (Rattus norvegicus, ip, read-out: Inhibition of secretion in the stomach, % inhibition) was found to be 100%. For the same compound, the “inhibition of the secretion in the stomach (in words)” value in series [2] (at a low dosage already (footnote to Table 1)) is reported as “strong inhibition”. Also, in series [3] (at the low dosage that inhibits secretion (footnote to Table 1)), the “effect on the ulcer (in words)” value is reported as “does not have a sufficiently”. This compound also returned an inhibition at 12 mg/kg in series [3] (po, dosage 12 mg/kg p.o., rat, indomethacine 20 mg/kg p.o., 24 hours) of 26%.

What is called LD50 is the dose at which mortality reaches 50%. In series [2], `COc1ccc(C(=O)NCC(O)CN(C)c2ccc(Cl)cc2)cc1OC` (stereo not drawn) [Compound 1, N1-(3,4-dimethoxybenzoyl)-N2-methyl-N2-(4-chlorophenyl)-1,3-diaminopropan-2-ol] returned an inhibition at 300 mg/kg of 0%. Also, the inhibition at 68 mg/kg in series [3] (setting [5]) was 44%. Also, in series [4], the LD50 at 168 h was > 6810 mg/kg.

`CN(CC(O)CNC(=O)c1ccccc1F)c1ccc(Cl)cc1` (stereo not drawn) [Compound 2, N1-(2-fluorobenzoyl)-N2-methyl-N2-(4-chlorophenyl)-1,3-diaminopropan-2-ol] registered an inhibition at 300 mg/kg in series [2] of 0%. In series [3] (setting [5]), this compound returned an inhibition at 68 mg/kg of 49%. Also, the LD50 at 168 h in series [4] is > 1470 mg/kg.

Take `CN(CC(O)CNC(=O)c1ccccc1C(F)(F)F)c1ccc(Cl)cc1` (stereo not drawn) [Compound 3, N1-(2-trifluoromethylbenzoyl)-N2-methyl-N2-(4-chlorophenyl)-1,3-diaminopropan-2-ol]: 300 mg/kg produced 0% inhibition in series [2]. For the same compound, in series [3] (po, dosage 75 mg/kg p.o., rat, indomethacine 20 mg/kg p.o., 24 hours), 75 mg/kg produced 40% inhibition. For the same compound, the LD50 at 168 h in series [4] was > 1470 mg/kg.

`CN(CC(O)CNC(=O)c1ccco1)c1ccc(Cl)cc1` (stereo not drawn) [Compound 4, N1-(2-furoyl)-N2-methyl-N2-(4-chlorophenyl)-1,3-diaminopropan-2-ol]: the inhibition at 300 mg/kg in series [2] stood at 0%. Besides, the inhibition at 68 mg/kg in series [3] (setting [5]) worked out at 44%. Moreover, the LD50 at 168 h in series [4] was > 1470 mg/kg.
